The record followed here is the supplement of paper PMC10307832.

Common to all, as to assay: relative viability (nuclei count vs DMSO), 5 days (fraction); higher = more cells survive
Compound in assay [1]: COc1cc(-c2nn([C@H]3CC[C@H](N4CCN(C(C)=O)CC4)CC3)c3ncnc(N)c23)ccc1NC(=O)c1cc2ccccc2n1C + O=C(c1cc(Cc2n[nH]c(=O)c3ccccc23)ccc1F)N1CCN(C(=O)C2CC2)CC1 [Olaparib] (partner 8 µM)
A digest of the protocol:
(§1)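 Relative viability divides the nuclei count in treated wells by that in vehicle wells. Lung cancer cell lines were seeded in 1536-well plates, dosed by pin tool the next day, and fixed and stained after 5 days in one step with final 0.05% Triton X-100, 1% formaldehyde and 1 ug/ml Hoechst. Dosing was a single drug or a fixed anchor-drug dose plus five library-drug doses (not always all listed) in √10 steps, and values are medians of duplicate plates imaged at 4×.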

Compound in assay [2]: CO[C@@H]1[C@H](N(C)C(=O)c2ccccc2)C[C@H]2O[C@]1(C)n1c3ccccc3c3c4c(c5c6ccccc6n2c5c31)C(=O)NC4 [Midostaurin] + Cc1nc(Nc2ncc(C(=O)Nc3c(C)cccc3Cl)s2)cc(N2CCN(CCO)CC2)n1 [Dasatinib] (partner 0.075 µM)
A digest of the protocol:
as §1

Compound in assay [3]: CO[C@@H]1[C@H](N(C)C(=O)c2ccccc2)C[C@H]2O[C@]1(C)n1c3ccccc3c3c4c(c5c6ccccc6n2c5c31)C(=O)NC4 [Midostaurin] + CC(=O)Nc1cccc(-n2c(=O)n(C3CC3)c(=O)c3c(Nc4ccc(I)cc4F)n(C)c(=O)c(C)c32)c1 [Trametinib] (partner 0.02 µM)
In short, it runs like this: as §1

Compound in assay [4]: COc1cc(-c2nn([C@H]3CC[C@H](N4CCN(C(C)=O)CC4)CC3)c3ncnc(N)c23)ccc1NC(=O)c1cc2ccccc2n1C + C[C@@H](Oc1cc(-c2cnn(C3CCNCC3)c2)cnc1N)c1c(Cl)ccc(F)c1Cl [Crizotinib] (partner 1 µM)
In short, it runs like this:
as §1

Compound in assay [5]: CO[C@@H]1[C@H](N(C)C(=O)c2ccccc2)C[C@H]2O[C@]1(C)n1c3ccccc3c3c4c(c5c6ccccc6n2c5c31)C(=O)NC4 [Midostaurin] + CC1(C)CCC(c2ccc(Cl)cc2)=C(CN2CCN(c3ccc(C(=O)NS(=O)(=O)c4ccc(N[C@H](CCN5CCOCC5)CSc5ccccc5)c(S(=O)(=O)C(F)(F)F)c4)cc3)CC2)C1 [Navitoclax] (partner 0.5 µM)
In short, it runs like this: as §1

On to NCI-H2087, for which the relative viability in assay [1] (first compound 0.0128 µM) was determined as 0.644; in assay [1] (first compound 0.128 µM), 0.616; in assay [1] (first compound 1.28 µM), 0.722; in assay [2] (first compound 0.01 µM) it was 1.03; in assay [2] (first compound 0.03162 µM), 0.757; in assay [2] (first compound 0.1 µM), 0.917. The relative viability in assay [2] (first compound 0.3162 µM) worked out at 0.777; in assay [3] (first compound 0.01 µM) it was 0.178; in assay [3] (first compound 0.03162 µM), 0.221; in assay [3] (first compound 0.1 µM), 0.187; in assay [3] (first compound 0.3162 µM) it was 0.273; in assay [4] (first compound 0.0128 µM), 1.1. The relative viability in assay [4] (first compound 0.04048 µM) came out at 1; in assay [4] (first compound 0.128 µM) it was 0.703; in assay [4] (first compound 1.28 µM), 0.947; in assay [5] (first compound 0.01 µM), 1; in assay [5] (first compound 0.03162 µM), 0.98; in assay [5] (first compound 0.1 µM), 0.875. Moreover, the relative viability in assay [5] (first compound 0.3162 µM) worked out at 0.897.

Consider NCI-H2126, for which the relative viability was 0.952 in assay [1] (first compound 0.0128 µM); 0.961 in assay [1] (first compound 0.04048 µM); 0.656 in assay [1] (first compound 0.128 µM); 0.74 in assay [1] (first compound 1.28 µM); 0.623 in assay [2] (first compound 0.01 µM); 0.502 in assay [2] (first compound 0.03162 µM). The relative viability was 0.596 in assay [2] (first compound 0.1 µM); 0.644 in assay [2] (first compound 0.3162 µM); 0.509 in assay [3] (first compound 0.01 µM); 0.562 in assay [3] (first compound 0.03162 µM); 0.553 in assay [3] (first compound 0.1 µM); 0.597 in assay [3] (first compound 0.3162 µM). Also, the relative viability in assay [4] (first compound 0.0128 µM) was 1.16; in assay [4] (first compound 0.04048 µM), 1.08; in assay [4] (first compound 0.128 µM) it was 1.04; in assay [4] (first compound 1.28 µM) it was 0.749; in assay [5] (first compound 0.01 µM), 0.92; in assay [5] (first compound 0.03162 µM) it was 0.826. For the same cell line, the relative viability in assay [5] (first compound 0.1 µM) was 0.824; in assay [5] (first compound 0.3162 µM), 0.903.

In the case of NCI-H2170, the relative viability is 0.72 in assay [1] (first compound 0.0128 µM); 0.615 in assay [1] (first compound 0.04048 µM); 0.595 in assay [1] (first compound 0.128 µM); 0.541 in assay [1] (first compound 1.28 µM); 0.572 in assay [2] (first compound 0.01 µM); 0.55 in assay [2] (first compound 0.03162 µM). Moreover, the relative viability in assay [2] (first compound 0.1 µM) stood at 0.512; in assay [2] (first compound 0.3162 µM) it was 0.735; in assay [3] (first compound 0.01 µM), 0.965; in assay [3] (first compound 0.03162 µM) it was 0.9; in assay [3] (first compound 0.1 µM), 0.894; in assay [3] (first compound 0.3162 µM), 1.02. The relative viability in assay [4] (first compound 0.0128 µM) came to 1.3; in assay [4] (first compound 0.04048 µM), 1.13; in assay [4] (first compound 0.128 µM), 1.2; in assay [4] (first compound 1.28 µM) it was 0.923; in assay [5] (first compound 0.01 µM), 0.609; in assay [5] (first compound 0.03162 µM), 0.673. The relative viability in assay [5] (first compound 0.1 µM) came out at 0.549; in assay [5] (first compound 0.3162 µM) it was 0.569.

On to NCI-H2228, for which the relative viability was 0.711 in assay [1] (first compound 0.0128 µM); 0.948 in assay [1] (first compound 0.04048 µM); 0.567 in assay [1] (first compound 0.128 µM); 0.459 in assay [1] (first compound 1.28 µM); 0.501 in assay [2] (first compound 0.01 µM); 0.622 in assay [2] (first compound 0.03162 µM). For the same cell line, the relative viability in assay [2] (first compound 0.1 µM) came out at 0.534; in assay [2] (first compound 0.3162 µM) it was 0.526; in assay [3] (first compound 0.01 µM), 0.522; in assay [3] (first compound 0.03162 µM) it was 0.634; in assay [3] (first compound 0.1 µM) it was 0.792; in assay [3] (first compound 0.3162 µM) it was 0.723. Also, the relative viability in assay [4] (first compound 0.0128 µM) was determined as 0.426; in assay [4] (first compound 0.04048 µM), 0.489; in assay [4] (first compound 0.128 µM), 0.428; in assay [4] (first compound 1.28 µM), 0.276; in assay [5] (first compound 0.01 µM) it was 0.665; in assay [5] (first compound 0.03162 µM), 0.824. Besides, the relative viability in assay [5] (first compound 0.1 µM) came out at 1.01; in assay [5] (first compound 0.3162 µM), 1.02.

NCI-H2347: the relative viability was determined as 0.561 in assay [1] (first compound 0.0128 µM); 0.597 in assay [1] (first compound 0.04048 µM); 0.56 in assay [1] (first compound 0.128 µM); 0.505 in assay [1] (first compound 1.28 µM); 0.328 in assay [2] (first compound 0.01 µM); 0.305 in assay [2] (first compound 0.03162 µM). In addition, the relative viability worked out at 0.281 in assay [2] (first compound 0.1 µM); 0.327 in assay [2] (first compound 0.3162 µM); 0.29 in assay [3] (first compound 0.01 µM); 0.278 in assay [3] (first compound 0.03162 µM); 0.309 in assay [3] (first compound 0.1 µM); 0.337 in assay [3] (first compound 0.3162 µM). The relative viability in assay [4] (first compound 0.0128 µM) was 0.795; in assay [4] (first compound 0.04048 µM), 0.751; in assay [4] (first compound 0.128 µM), 0.797; in assay [4] (first compound 1.28 µM) it was 0.736; in assay [5] (first compound 0.01 µM), 0.771; in assay [5] (first compound 0.03162 µM), 0.832. In addition, the relative viability in assay [5] (first compound 0.1 µM) is 0.902; in assay [5] (first compound 0.3162 µM), 0.889.

For the cell line NCI-H2405, the relative viability in assay [1] (first compound 0.0128 µM) was found to be 0.908; in assay [1] (first compound 0.04048 µM) it was 0.719; in assay [1] (first compound 0.128 µM), 0.756; in assay [1] (first compound 1.28 µM), 0.453; in assay [2] (first compound 0.01 µM) it was 0.216; in assay [2] (first compound 0.03162 µM), 0.199. The relative viability in assay [2] (first compound 0.1 µM) stood at 0.212; in assay [2] (first compound 0.3162 µM), 0.201; in assay [3] (first compound 0.01 µM) it was 0.615; in assay [3] (first compound 0.03162 µM) it was 0.562; in assay [3] (first compound 0.1 µM), 0.61; in assay [3] (first compound 0.3162 µM) it was 0.607. Moreover, the relative viability in assay [4] (first compound 0.0128 µM) was determined as 0.827; in assay [4] (first compound 0.128 µM) it was 0.733; in assay [4] (first compound 1.28 µM), 0.442; in assay [5] (first compound 0.01 µM), 0.921; in assay [5] (first compound 0.03162 µM) it was 1.04; in assay [5] (first compound 0.3162 µM), 0.655.

On to NCI-H3122, for which the relative viability in assay [1] (first compound 0.0128 µM) was determined as 0.683; in assay [1] (first compound 0.128 µM) it was 0.64; in assay [1] (first compound 1.28 µM), 0.621; in assay [2] (first compound 0.01 µM), 0.779; in assay [2] (first compound 0.03162 µM), 0.698; in assay [2] (first compound 0.1 µM), 0.731. Moreover, the relative viability in assay [2] (first compound 0.3162 µM) was 0.978; in assay [3] (first compound 0.01 µM), 0.244; in assay [3] (first compound 0.03162 µM), 0.191; in assay [3] (first compound 0.1 µM), 0.214; in assay [3] (first compound 0.3162 µM) it was 0.264; in assay [4] (first compound 0.0128 µM) it was 0.289. Further, the relative viability was 0.269 in assay [4] (first compound 0.128 µM); 0.229 in assay [4] (first compound 1.28 µM); 1.07 in assay [5] (first compound 0.01 µM); 0.993 in assay [5] (first compound 0.03162 µM); 1.03 in assay [5] (first compound 0.1 µM); 1.04 in assay [5] (first compound 0.3162 µM).
